Experiments:
[1] = test system: mice; details: intragastric administration, source not stated; cited from earlier work
[2] = cited from earlier work
[3] = test system: healthy, mature C57BL/6 male mice; experiment: Object location memory test (recognition of the new location of a known object); assay type: in vivo; details: for dose with maximally expressed stimulating/activating effect on memory: mice, intragastric
Source text: Method. In order to study the action of substances on the memory of animals in which there had been no prior destruction of neurons, we used the test of recognition of the new location of a known object (“Object location memory test”, B. Kolb, K. Buhrmann, R. McDonald and R. Sutherland, Cereb. Cortex, 6 (1994), pp 664-680; D. Gaffan, Eur. J. Neurosci., 4 (1992), pp. 381-388; T. Steckler, W. H. I. M. Drinkenburgh, A. Sahgal and J. P. Aggleton, Prog. Neurobiol., 54 (1998), pp. 289-311). This Object Recognition Test is used to study memory. It provides a reliable, easy-to-use assessment tool for analyzing the effects of test compounds on memory in animals. The test can be applied to normal healthy animals (controls), as well as to animals that are models of various neurodegenerative diseases.
Experiments were performed on healthy, mature C57BL/6 male mice aged 3-5 months and weighing 20-24 g. Male mice were used to exclude any possible negative effects resulting from hormonal changes associated with […] in female mice. The animals were kept in a vivarium with 5 to a cage in 12/12 hours light regime with light from 08.00 to 20.00 and free access to water and food. The observation chamber was made from white opaque organic glass and measured 48×38×30 cm. Brown glass vials with a diameter of 2.7 cm and a height of 5.5 cm were used as the test objects. 2-3 minutes before introducing an animal, the chamber and test objects were rubbed with 85% alcohol. The animals were always placed in the centre of the chamber.
Dimebon was dissolved in distilled water and administered intragastrically 1 hour before training in a volume of 0.05 ml per 10 g of animal weight. A corresponding volume of solvent was administered to control animals.
On the first day, the mice were brought into the test room and acclimatized for 20-30 minutes. After this, each animal was placed for 10 min. in an empty behavior chamber, which had been pretreated with alcohol, for familiarization. The animal was then replaced in the cage and taken to the vivarium.
On the following day, the same mice were brought into the test room, acclimatized for 20-30 min. and then given dimebon solution intragastrically. One hour after administration of the substance, an animal was placed in the behavior chamber, on the bottom of which two identical objects for recognition (glass vials) were placed on a diagonal at a distance of 14.5 cm from the corners. The training time for each animal was 20 min. After 20 min. it was replaced in the cage and returned to the vivarium.
Testing was performed 48 hours after training. For this purpose, after acclimatization an animal was placed for 1 min. in the chamber for refamiliarization. After a minute it was removed and one object was placed on the bottom of the chamber in a location known to the animal, and the other in a new location. The time spent investigating each object separately over a period of 10 min. was recorded with an accuracy of 0.1 s using two electronic stopwatches. The behavior of the animals was observed through a mirror. Purposeful approach of an animal's nose towards an object at a distance of 2 cm or direct touching of an object with the nose was regarded as a positive investigative reaction.
Since significant variations in object investigation time between animals are observed in this test, we calculated the percent investigation time for each mouse using the formula tNl/(tKl+tNl)×100. The total time spent on investigation of the two objects was taken as 100%. The results were further processed using the Student t-test method.

[4] = test system: mice; experiment: Acute toxicity on intragastric administration; assay type: in vivo; details: intragastric administration
Description: (§1) Investigation of the acute toxicity of Memantine® established that the death of the animals is observed after its intragastric administration in a dose of 300 mg/kg. The LD50 for mice on intragastric administration of Nootropil® (piracetam) is 8000 mg/kg.

[5] = test system: AD patients; details: 20 mg three times daily; cited from earlier work
[6] = test system: rats with a model of AD; details: cholinergic neurons damaged by chronic AF64A; cited from earlier work
[7] = Acute toxicity on intragastric administration; assay type: in vivo; details: mouse, in vivo, po
Description: as §1

[8] = dose 2.5 mg/kg, testing 48 hours after training
[9] = dose 0.01 mg/kg intragastrically 1 hour before training, testing 48 hours after training
[10] = dose 0.1 mg/kg intragastrically, testing 48 hours after training

Compound | LD50 [1] | doses with stimulating effect on learning and memory ([2]; active and passive avoidance conditioned response tests, depending on the test) | maximally effective dose that stimulated learning and memory ([2]; data from the literature) | percent of time on investigation of the object in a known location [3, 8] | percent of time on investigation of the object in a new location [3, 8] | dose with maximally expressed stimulating/activating effect on memory [3] | dose at which death of the animals is observed [4] | condition of AD patients (memory and cognitive functions) [5] | results in active avoidance conditioned reflex experiment versus control animals [6] | stimulating effect on memory, times more active than Nootropil (piracetam) ([3]; compared with literature doses of Nootropil) | memory-enhancing activity relative to Memantine (times higher) ([3]; comparing doses with essentially the same effect (0.01 vs 2.5 mg/kg)) | memory-enhancing activity relative to Memantine (times higher) ([3]; comparing maximally effective doses (0.1 vs 2.5 mg/kg)) | percent of time on investigation of the object in the known location [3, 9] | percent of time on investigation of the object in the new location [3, 9] | percent of time on investigation of the object in the known location [3, 10] | percent of time on investigation of the object in the new location [3, 10] | activating effect on memory ([3]; dose increased to 0.25 mg/kg) | stimulating effect on memory, times more active than Memantine ([3]; overall conclusion) | LD50 [7]
NC(=O)CN1CCCC1=O [Nootropil® (piracetam), piracetam] | 8000 mg/kg | 200 to 500 mg/kg | 200 to 500 mg/kg |  |  |  |  |  |  |  |  |  |  |  |  |  |  |  | 
CC12CC3CC(C)(C1)CC(N)(C3)C2 [Memantine®, reference compound] |  |  |  | 40.6±6.9% | 59.4±6.9% | 2.5 mg/kg | 300 mg/kg |  |  |  |  |  |  |  |  |  |  |  | 
Cc1ccc2c(c1)c1c(n2CCc2ccc(C)nc2)CCN(C)C1 [dimebon, 2,8-dimethyl-5-[2-(6-methyl-3-pyridyl)ethyl]-2,3,4,5-tetrahydro-1H-pyrido[4,3-b]indole] |  |  |  |  |  | 0.1 mg/kg |  | improvement in the condition of AD patients | significantly better results | 2000-5000 times | 250 times | 25 times | 42.5±4.8% | 57.5±4.8% | 37.6% | 62.4±6.5% | activating effect on memory disappears | 25-250 times | > 1000 mg/kg
